This data set concerns BHK-SR19-T7 cells. In words: Blasticidin concentration that kills BHK-SR19-T7 cells. Type of data set: cell-based, hamster. To be noted: in medium. The method, then:
To launch the replicon, MP295 and the four RSV support plasmids necessary for virus replication and gene expression, N, P, L, and M2-1 were transfected into two 35 mm wells of BHK-SR19-T7 cells (FIG. 4). On day 2, green cells were noted and all of the cells from each 35 mm dish were passaged to 100 mm dishes. On the following day (day 3) the medium was replaced with fresh medium containing 1 ug/ml blasticidin, a concentration that we had determined would kill most BHK-SR19-T7 cells. On day 4, approximately 200 single green cells and 15 pairs of the green cells were noted. On day 6, 20 pairs of green cells were noted. Many of the cells lacking the replicon had died by that time, but a few resistant colonies were growing. The cells were passaged into 150 mm tissue culture plates, in the presence of 4 or 8 ug/ml blasticidin in an attempt to eliminate resistant BHK cell clones. The following day, day 9, 40% of the 175 cell groups counted were pairs, the remainder being singles. By day 14, 3 colonies of >20 cells had developed, while many of the individual green cells had remained single or died. By day 19, many “mixed” colonies containing both replicon-containing and parental cells were noted, as well as more colonies with only green cells.

The values that follow come from patent US7585667B2, “Negative strand RNA virus replicon” (The United States of America as represented by The …, priority 2003, dated 2009).

SMILES strings stand for the structures.

For `CN(CC[C@H](N)CC(=O)N[C@H]1C=C[C@H](n2ccc(N)nc2=O)O[C@@H]1C(=O)O)C(=N)N` [blasticidin], the “concentration that would kill most BHK-SR19-T7 cells” value is 1000 ng/mL.
